Test results from patent publication US11304417B2, “Method of protecting determinate soybean from damage by a plant pathogen” (SUMITOMO CHEMICAL COMPANY, LIMITED, priority 2019, dated 2022).

Assays:
Assay type in all cases: in vivo
[1] = test system: Asian soybean rust (Phakopsora pachyrhizi); experiment: Dripping mefentrifluconazole onto apical bud, Asian soybean rust inoculation, fresh weight of aerial part (Example 5 / Comparative Example 5); conditions: 500 g per hectare; for Treatment/control ratio (100 × A/B): dripped onto apical bud 0.5 mg per plant, 7 days from inoculation
Description: Two varieties of determinate soybean were sown to a pot filled with a soil at a sowing rate of 1,000,000 seeds per hectare. Then each determinate soybean was incubated for […] in a greenhouse. A mefentrifluconazole dilution liquid (prepared by diluting an aqueous suspension concentrate of mefentrifluconazole with water) is dripped onto the apical bud of determinate soybean plants so that the amount of mefentrifluconazole to be applied to each plant might be 0.5 mg. That is, the application rate of mefentrifluconazole was 500 g per hectare. Three days after the application, a pathogen of Asian soybean rust (Phakopsora pachyrhizi) was inoculated to the foliage of each determinate soybean. Each determinate soybean was incubated in a greenhouse for 7 days from the inoculation, and then fresh weight of the aerial part of each determinate soybean was measured. The fresh weight is referred to as ‘the fresh weight in treatment plot’.
As a control experiment, the same procedure was repeated except that dripping treatment with mefentrifluconazole dilution liquid and the inoculation of the pathogen were not conducted. The fresh weight obtained in the control experiment is referred to as ‘the fresh weight in control plot’.
The same procedure of the example 5 was repeated except for replacing two varieties of determinate soybean with two varieties of indeterminate soybean.

[2] = test system: Asian soybean rust (Phakopsora pachyrhizi); experiment: Foliar spray of mefentrifluconazole, Asian soybean rust inoculation, fresh weight of aerial part (Example 1 / Comparative Example 1); conditions: foliar spray 500 g per hectare, 14 days from inoculation
Description: Determinate soybean is sown to a pot filled with a soil. It is incubated for 7 days in a greenhouse. Mefentrifluconazole spray liquid (prepared by diluting an aqueous suspension concentrate of mefentrifluconazole with water) is uniformly sprayed onto the foliage of determinate soybean at the amount of 200 L per hectare so that the application rate of mefentrifluconazole may be 500 g per hectare. On the next day of the spraying, a pathogen of Asian soybean rust (Phakopsora pachyrhizi) is inoculated to the foliage of determinate soybean. The determinate soybean is incubated in a greenhouse for 14 days from the inoculation, and then fresh weight of the aerial part of the determinate soybean is measured. It is confirmed that the fresh weight is equivalent to that of the control where determinate soybean is not treated with mefentrifluconazole and the pathogen is not inoculated (no-treatment-no-inoculation control) and is bigger than that of the control where determinate soybean is not treated with mefentrifluconazole and the pathogen is inoculated (no-treatment-inoculation control). The same procedure of the example 1 is repeated except for replacing determinate soybean with indeterminate soybean or semi-determinate soybean. It is confirmed that the fresh weight of indeterminate soybean or semi-determinate soybean is smaller than that of the corresponding no-treatment-no-inoculation control and is equivalent to that of the corresponding no-treatment-inoculation control.

[3] = test system: Asian soybean rust (Phakopsora pachyrhizi); experiment: Seed dipping with mefentrifluconazole, Asian soybean rust inoculation, fresh weight of aerial part (Example 4 / Comparative Example 4); conditions: 200 g per hectare; for Treatment/control ratio (100 × A/B): seed dipping 0.2 mg per seed, 7 days from inoculation; for Protection from the damage by the pathogen: seed dipping
Description: Seeds of two varieties of determinate soybean were separately dipped in a mefentrifluconazole dilution liquid (prepared by diluting an aqueous suspension concentrate of mefentrifluconazole with water) so that the amount of mefentrifluconazole to be applied to each seed might be 0.2 mg. Then, the determinate soybean seeds were sown to a pot filled with a soil at a sowing rate of 1,000,000 seeds per hectare. That is, the application rate of mefentrifluconazole was 200 g per hectare. Each determinate soybean was incubated in a greenhouse for 11 days from the sowing, and then a pathogen of Asian soybean rust (Phakopsora pachyrhizi) was inoculated to the foliage of each determinate soybean. Each determinate soybean was incubated in a greenhouse for 7 days from the inoculation, and then fresh weight of the aerial part of each determinate soybean was measured. The fresh weight is referred to as ‘the fresh weight in treatment plot’. As a control experiment, the same procedure was repeated except that dipping treatment with mefentrifluconazole dilution liquid and the inoculation of the pathogen were not conducted. The fresh weight obtained in the control experiment is referred to as ‘the fresh weight in control plot’. The same procedure of the example 4 was repeated except for replacing two varieties of determinate soybean with two varieties of indeterminate soybean.

[4] = test system: Asian soybean rust (Phakopsora pachyrhizi); experiment: Seed coating with mefentrifluconazole, Asian soybean rust inoculation, fresh weight of aerial part (Example 2 / Comparative Example 2); conditions: seed coating 0.2 mg per seed, 20 g per hectare, 14 days from inoculation
Description: Seeds of determinate soybean are coated with a mefentrifluconazole aqueous suspension concentrate so that the amount of mefentrifluconazole to be applied to each seed may be 0.2 mg. Then, the determinate soybean seeds are sown to a pot filled with a soil at a sowing rate of 100,000 seeds per hectare. That is, the application rate of mefentrifluconazole is 20 g per hectare. Then, the determinate soybean is incubated in a greenhouse for 10 days, followed by inoculating a pathogen of Asian soybean rust (Phakopsora pachyrhizi) to the foliage of determinate soybean. The determinate soybean is incubated in a greenhouse for 14 days from the inoculation, and then the fresh weight of the aerial part of the determinate soybean is measured. It is confirmed that the fresh weight is equivalent to that of the control where determinate soybean is not treated with mefentrifluconazole and the pathogen is not inoculated (no-treatment-no-inoculation control) and is bigger than that of the control where determinate soybean is not treated with mefentrifluconazole and the pathogen is inoculated (no-treatment-inoculation control). The same procedure of the example 2 is repeated except for replacing determinate soybean with indeterminate soybean or semi-determinate soybean. It is confirmed that the fresh weight of indeterminate soybean or semi-determinate soybean is smaller than that of the corresponding no-treatment-no-inoculation control and is equivalent to that of the corresponding no-treatment-inoculation control.

[5] = test system: Asian soybean rust (Phakopsora pachyrhizi); experiment: Dripping mefentrifluconazole onto primary leaf, Asian soybean rust inoculation, fresh weight of aerial part (Example 3 / Comparative Example 3); conditions: dripped onto primary leaf 0.2 mg per plant, 200 g per hectare, 14 days from inoculation
Description: Determinate soybean is sown to a pot filled with a soil at a sowing rate of 1,000,000 seeds per hectare. The determinate soybean is incubated for 10 days in a greenhouse, and then mefentrifluconazole dilution liquid (prepared by diluting an aqueous suspension concentrate of mefentrifluconazole with water) is dripped onto the primary leaf of determinate soybean so that the amount of mefentrifluconazole to be applied to each plant may be 0.2 mg. That is, the application rate of mefentrifluconazole is 200 g per hectare. On the next day of the application, a pathogen of Asian soybean rust (Phakopsora pachyrhizi) is inoculated to the foliage of determinate soybean. The determinate soybean is incubated in a greenhouse for 14 days from the inoculation, and then fresh weight of the aerial part of the determinate soybean is measured. It is confirmed that the fresh weight is equivalent to that of the control where determinate soybean is not treated with mefentrifluconazole and the pathogen is not inoculated (no-treatment-no-inoculation control) and is bigger than that of the control where determinate soybean is not treated with mefentrifluconazole and the pathogen is inoculated (no-treatment-inoculation control).
The same procedure of the example 3 is repeated except for replacing determinate soybean with indeterminate soybean or semi-determinate soybean. It is confirmed that the fresh weight of indeterminate soybean or semi-determinate soybean is smaller than that of the corresponding no-treatment-no-inoculation control and is equivalent to that of the corresponding no-treatment-inoculation control.

[6] = Kurosengoku, indeterminate soybean
[7] = Toyomusume, determinate soybean
[8] = indeterminate or semi-determinate soybean

Q: How did the “Treatment/control ratio (100 × A/B)” value [1, 6] turn out when `CC(O)(Cn1cncn1)c1ccc(Oc2ccc(Cl)cc2)cc1C(F)(F)F` (centres unmarked) [mefentrifluconazole] was run?
A: 49

Q: What about the “Treatment/control ratio (100 × A/B)” value ([1]; Tambaguro, determinate soybean) of the same molecule?
A: 82

Q: What about the “Treatment/control ratio (100 × A/B)” value [1, 7] of the same molecule?
A: 85

Q: What about the “Treatment/control ratio (100 × A/B)” value ([1]; Williams 82, indeterminate soybean) of the same molecule?
A: 39

Q: What about the “Protection from the damage by the pathogen” value (“Protection from the damage” for short) ([1]; determinate versus indeterminate soybeans (Tables 3 and 4), dripped onto apical bud) of the same molecule?
A: protected much more effectively compared with indeterminate soybeans

Q: What about the “Fresh weight of aerial part compared with no-treatment-inoculation control” value ([2]; determinate soybean) of the same molecule?
A: bigger

Q: What about the “Fresh weight of aerial part compared with no-treatment-no-inoculation control” value ([2]; determinate soybean) of the same molecule?
A: equivalent

Q: And the “Fresh weight of aerial part compared with no-treatment-inoculation control” value [2, 8]?
A: equivalent

Q: And the “Fresh weight of aerial part compared with no-treatment-no-inoculation control” value [2, 8]?
A: smaller

Q: What about the “Treatment/control ratio (100 × A/B)” value ([3]; Harosoy, indeterminate soybean) of the same molecule?
A: 55

Q: And the “Treatment/control ratio (100 × A/B)” value [3, 6]?
A: 68

Q: What about the “Treatment/control ratio (100 × A/B)” value ([3]; Tambaguro, determinate soybean) of the same molecule?
A: 104

Q: And the “Treatment/control ratio (100 × A/B)” value [3, 7]?
A: 105

Q: And the “Protection from the damage” value ([3]; determinate soybean (Table 1))?
A: successfully protected

Q: And the “Protection from the damage” value ([3]; indeterminate soybean (Table 2))?
A: not successfully protected

Q: And the “Fresh weight of aerial part compared with no-treatment-inoculation control” value ([4]; determinate soybean)?
A: bigger

Q: What about the “Fresh weight of aerial part compared with no-treatment-no-inoculation control” value ([4]; determinate soybean) of the same molecule?
A: equivalent

Q: What about the “Fresh weight of aerial part compared with no-treatment-inoculation control” value [4, 8] of the same molecule?
A: equivalent

Q: And the “Fresh weight of aerial part compared with no-treatment-no-inoculation control” value [4, 8]?
A: smaller

Q: And the “Fresh weight of aerial part compared with no-treatment-inoculation control” value ([5]; determinate soybean)?
A: bigger

Q: What about the “Fresh weight of aerial part compared with no-treatment-no-inoculation control” value ([5]; determinate soybean) of the same molecule?
A: equivalent

Q: What about the “Fresh weight of aerial part compared with no-treatment-inoculation control” value [5, 8] of the same molecule?
A: equivalent

Q: And the “Fresh weight of aerial part compared with no-treatment-no-inoculation control” value [5, 8]?
A: smaller
